Data taken from patent US20080125516A1, “Dispersible long-acting mold-proof polyurethanes or urethane adducts and mold-proof materials made thereof” (HEADWAY ADVANCED MATERIALS INC., priority 2006, published 2008).

Experiment: Solubility in solvents
Assay type: physicochemical

Measured: Solubility

COC(=O)Nc1nc2ccccc2[nH]1 [Unmodified Mold-Proof Agent, methy benzimidazol-2-ylcarbamate]
<0.3%: Dimethylformamide (DMF) | Ethyl acetate (EAC) | Methanol (ME) | Methyl-Ethyl Ketone (MEK) | N,N-dimethylacetamide (DMAC)
